# Literature values in patent US8187640B2, “Low viscosity liquid polymeric delivery system” (Dunn Research & Consulting, LLC, priority 2009, dated 2012).
# Test system: Male Sprague Dawley rats
# Settings: given in an aqueous solution
substance,measurement,value
buprenorphine HCL,Duration of efficacy in the rat tail flick test,about 5 hours
